From ChEMBL document CHEMBL4052714, “Synthesis and antibacterial activity of novel 4″-O-(1-aralkyl-1,2,3-triazol-4-methyl-carbamoyl) azithromycin analogs” (2017)
In brackets after ≈: the same amount, converted by molar mass.

Experiments:
Format in all cases: functional
Streptococcus pneumoniae [1] = experiment: Antibacterial activity against erythromycin-resistant Streptococcus pneumoniae AB11 expressing ermB/mefA gene
Streptococcus pneumoniae [2] = experiment: Antibacterial activity against erythromycin-resistant Streptococcus pneumoniae B1 expressing ermB gene
Staphylococcus aureus [3] = experiment: Antibacterial activity against methicillin-susceptible Staphylococcus aureus ATCC 29213
Streptococcus pneumoniae [4] = experiment: Antibacterial activity against erythromycin-susceptible Streptococcus pneumoniae ATCC 49619
Pseudomonas aeruginosa = experiment: Antibacterial activity against Pseudomonas aeruginosa ATCC 27853
Streptococcus pyogenes [5] = experiment: Antibacterial activity against erythromycin-susceptible Streptococcus pyogenes isolate S2
Streptococcus pyogenes [6] = experiment: Antibacterial activity against erythromycin-resistant Streptococcus pyogenes isolate R2
Escherichia coli = experiment: Antibacterial activity against Escherichia coli ATCC 25922
Staphylococcus aureus [7] = experiment: Antibacterial activity against erythromycin-susceptible Staphylococcus aureus ATCC 25923
Streptococcus pneumoniae [8] = experiment: Antibacterial activity against erythromycin-resistant Streptococcus pneumoniae A22072 expressing mefA gene

| Structure (SMILES) | MIC (Streptococcus pneumoniae [1]) | MIC (Streptococcus pneumoniae [2]) | MIC (Staphylococcus aureus [3]) | MIC (Streptococcus pneumoniae [4]) | MIC (Pseudomonas aeruginosa) | MIC (Streptococcus pyogenes [5]) | MIC (Streptococcus pyogenes [6]) | MIC (Escherichia coli) | MIC (Staphylococcus aureus [7]) | MIC (Streptococcus pneumoniae [8]) |
| --- | --- | --- | --- | --- | --- | --- | --- | --- | --- | --- |
| CC[C@H]1OC(=O)[C@H](C)[C@@H](O[C@H]2C[C@@](C)(OC)[C@@H](OC(=O)NCc3cn(Cc4ccccc4F)nn3)[C@H](C)O2)[C@H](C)[C@@H](O[C@@H]2O[C@H](C)C[C@H](N(C)C)[C@H]2O)[C@](C)(O)C[C@@H](C)CN(C)[C@H](C)[C@H]2OC(=O)O[C@@]21C | 0.25 µg/mL (≈ 0.248 µM) | 2 µg/mL (≈ 1.99 µM) | 32 µg/mL (≈ 31.8 µM) | 0.5 µg/mL (≈ 0.496 µM) | 64 µg/mL (≈ 63.5 µM) | 0.125 µg/mL (≈ 0.124 µM) | 128 µg/mL (≈ 127 µM) | 128 µg/mL (≈ 127 µM) | 4 µg/mL (≈ 3.97 µM) | 1 µg/mL (≈ 0.993 µM) |
| CC[C@H]1OC(=O)[C@H](C)[C@@H](O[C@H]2C[C@@](C)(OC)[C@@H](OC(=O)NCc3cn(Cc4ccc(Cl)cc4)nn3)[C@H](C)O2)[C@H](C)[C@@H](O[C@@H]2O[C@H](C)C[C@H](N(C)C)[C@H]2O)[C@](C)(O)C[C@@H](C)CN(C)[C@H](C)[C@H]2OC(=O)O[C@@]21C | 4 µg/mL (≈ 3.91 µM) | 8 µg/mL (≈ 7.82 µM) | 32 µg/mL (≈ 31.3 µM) | 1 µg/mL (≈ 0.977 µM) | 64 µg/mL (≈ 62.5 µM) | 0.125 µg/mL (≈ 0.122 µM) | 64 µg/mL (≈ 62.5 µM) | 64 µg/mL (≈ 62.5 µM) | 4 µg/mL (≈ 3.91 µM) | 1 µg/mL (≈ 0.977 µM) |
| CC[C@H]1OC(=O)[C@H](C)[C@@H](O[C@H]2C[C@@](C)(OC)[C@@H](OC(=O)NCc3cn(Cc4ccccc4)nn3)[C@H](C)O2)[C@H](C)[C@@H](O[C@@H]2O[C@H](C)C[C@H](N(C)C)[C@H]2O)[C@](C)(O)C[C@@H](C)CN(C)[C@H](C)[C@H]2OC(=O)O[C@@]21C | 4 µg/mL (≈ 4.04 µM) | 8 µg/mL (≈ 8.09 µM) | 32 µg/mL (≈ 32.3 µM) | 0.5 µg/mL (≈ 0.505 µM) | 64 µg/mL (≈ 64.7 µM) | 0.06 µg/mL (≈ 0.0607 µM) | 128 µg/mL (≈ 129 µM) | 128 µg/mL (≈ 129 µM) | 4 µg/mL (≈ 4.04 µM) | 8 µg/mL (≈ 8.09 µM) |
| CC[C@H]1OC(=O)[C@H](C)[C@@H](O[C@H]2C[C@@](C)(OC)[C@@H](OC(=O)NCc3cn(Cc4ccc(C)cc4)nn3)[C@H](C)O2)[C@H](C)[C@@H](O[C@@H]2O[C@H](C)C[C@H](N(C)C)[C@H]2O)[C@](C)(O)C[C@@H](C)CN(C)[C@H](C)[C@@H](OC(=O)NCc2ccccc2)[C@]1(C)O | 0.25 µg/mL (≈ 0.225 µM) | 0.25 µg/mL (≈ 0.225 µM) | 16 µg/mL (≈ 14.4 µM) | 0.125 µg/mL (≈ 0.113 µM) | 32 µg/mL (≈ 28.8 µM) | < 0.002 µg/mL | 32 µg/mL (≈ 28.8 µM) | 32 µg/mL (≈ 28.8 µM) | 0.5 µg/mL (≈ 0.45 µM) | 0.125 µg/mL (≈ 0.113 µM) |
| CC[C@H]1OC(=O)[C@H](C)[C@@H](O[C@H]2C[C@@](C)(OC)[C@@H](OC(=O)NCc3cn(Cc4ccccc4)nn3)[C@H](C)O2)[C@H](C)[C@@H](O[C@@H]2O[C@H](C)C[C@H](N(C)C)[C@H]2O)[C@](C)(O)C[C@@H](C)CN(C)[C@H](C)[C@@H](OC(=O)NCc2ccncc2)[C@]1(C)O | 0.25 µg/mL (≈ 0.228 µM) | 0.125 µg/mL (≈ 0.114 µM) | 32 µg/mL (≈ 29.2 µM) | 0.5 µg/mL (≈ 0.456 µM) | 64 µg/mL (≈ 58.3 µM) | 0.03 µg/mL (≈ 0.0273 µM) | 32 µg/mL (≈ 29.2 µM) | 32 µg/mL (≈ 29.2 µM) | 1 µg/mL (≈ 0.911 µM) | 0.06 µg/mL (≈ 0.0547 µM) |
| CC[C@H]1OC(=O)[C@H](C)[C@@H](O[C@H]2C[C@@](C)(OC)[C@@H](OC(=O)NCc3cn(Cc4cccc(Cl)c4)nn3)[C@H](C)O2)[C@H](C)[C@@H](O[C@@H]2O[C@H](C)C[C@H](N(C)C)[C@H]2O)[C@](C)(O)C[C@@H](C)CN(C)[C@H](C)[C@H]2OC(=O)O[C@@]21C | 1 µg/mL (≈ 0.977 µM) | 4 µg/mL (≈ 3.91 µM) | 32 µg/mL (≈ 31.3 µM) | 1 µg/mL (≈ 0.977 µM) | 64 µg/mL (≈ 62.5 µM) | 0.06 µg/mL (≈ 0.0586 µM) | 16 µg/mL (≈ 15.6 µM) | 128 µg/mL (≈ 125 µM) | 4 µg/mL (≈ 3.91 µM) | 0.5 µg/mL (≈ 0.488 µM) |
| CC[C@H]1OC(=O)[C@H](C)[C@@H](O[C@H]2C[C@@](C)(OC)[C@@H](OC(=O)NCc3cn(Cc4ccccc4)nn3)[C@H](C)O2)[C@H](C)[C@@H](O[C@@H]2O[C@H](C)C[C@H](N(C)C)[C@H]2O)[C@](C)(O)C[C@@H](C)CN(C)[C@H](C)[C@@H](OC(=O)NCCc2ccccc2)[C@]1(C)O | 0.25 µg/mL (≈ 0.225 µM) | 0.25 µg/mL (≈ 0.225 µM) | 16 µg/mL (≈ 14.4 µM) | 0.125 µg/mL (≈ 0.113 µM) | 8 µg/mL (≈ 7.2 µM) | < 0.002 µg/mL | 32 µg/mL (≈ 28.8 µM) | 16 µg/mL (≈ 14.4 µM) | 0.25 µg/mL (≈ 0.225 µM) | 0.125 µg/mL (≈ 0.113 µM) |
| CC[C@H]1OC(=O)[C@H](C)[C@@H](O[C@H]2C[C@@](C)(OC)[C@@H](OC(=O)NCc3cn(Cc4ccc(F)cc4)nn3)[C@H](C)O2)[C@H](C)[C@@H](O[C@@H]2O[C@H](C)C[C@H](N(C)C)[C@H]2O)[C@](C)(O)C[C@@H](C)CN(C)[C@H](C)[C@H]2OC(=O)O[C@@]21C | 4 µg/mL (≈ 3.97 µM) | 8 µg/mL (≈ 7.94 µM) | 32 µg/mL (≈ 31.8 µM) | 1 µg/mL (≈ 0.993 µM) | 64 µg/mL (≈ 63.5 µM) | 0.125 µg/mL (≈ 0.124 µM) | 32 µg/mL (≈ 31.8 µM) | 128 µg/mL (≈ 127 µM) | 4 µg/mL (≈ 3.97 µM) | 1 µg/mL (≈ 0.993 µM) |
